The nature of data set [1]: Oral bioavailability in 18 hrs fasted normal Sprague-Dawley rat up to 100 mg/kg by urinary excretion assay. It is filed as ADME, organism-based. The settings on record: urine.
The subject of data set [2] is Rattus norvegicus. Description: Reduction of blood glucose level in 18 hrs fasted normal Sprague-Dawley rat at 10 mg/kg, iv after 1 hr interval. Type of data set: functional. Also on record: scale not given: the % may be the effect or the level left.
Data set [3] concerns Hepatocyte. The data set is described as follows: Inhibition of glucose production in rat primary hepatocytes at 10 uM. Type of data set: functional, cell-based.
The nature of data set [4]: Activation of glycogen phosphorylase AMP binding site.
The target in data set [5] is T1, ATP-dependent 6-phosphofructokinase, muscle type (Homo sapiens, UniProt P08237).
T1 sequence (P08237 whole entry): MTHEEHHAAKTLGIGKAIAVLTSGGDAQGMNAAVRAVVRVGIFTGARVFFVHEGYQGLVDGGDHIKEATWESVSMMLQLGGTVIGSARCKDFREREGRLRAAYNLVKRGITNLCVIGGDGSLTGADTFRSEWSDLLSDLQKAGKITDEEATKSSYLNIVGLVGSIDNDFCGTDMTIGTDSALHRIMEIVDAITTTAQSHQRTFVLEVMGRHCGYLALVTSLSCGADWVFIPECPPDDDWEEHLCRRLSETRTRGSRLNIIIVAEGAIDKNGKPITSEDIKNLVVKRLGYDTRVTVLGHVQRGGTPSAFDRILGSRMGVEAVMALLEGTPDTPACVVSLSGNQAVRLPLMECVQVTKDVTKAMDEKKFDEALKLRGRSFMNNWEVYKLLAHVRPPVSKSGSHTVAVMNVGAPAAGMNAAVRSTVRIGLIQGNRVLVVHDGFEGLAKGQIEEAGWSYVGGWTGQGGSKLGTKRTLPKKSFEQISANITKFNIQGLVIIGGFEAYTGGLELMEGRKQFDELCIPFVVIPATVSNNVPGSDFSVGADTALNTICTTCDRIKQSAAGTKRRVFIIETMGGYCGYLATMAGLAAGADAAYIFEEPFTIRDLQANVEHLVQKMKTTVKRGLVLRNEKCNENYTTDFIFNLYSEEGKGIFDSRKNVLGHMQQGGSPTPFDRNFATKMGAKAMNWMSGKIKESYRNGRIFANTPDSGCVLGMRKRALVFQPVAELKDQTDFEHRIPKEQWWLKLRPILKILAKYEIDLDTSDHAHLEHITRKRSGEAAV
The data set is described as follows: Activation of phosphofructokinase AMP binding site.

Another data set addresses Adenosine kinase (Homo sapiens, UniProt P55263). Description: Inhibition of adenosine kinase AMP binding site.
Data set [6] deals with Rattus norvegicus. Description: Reduction of blood glucose level in 5 hrs fasted ZDF rat at 10 mg/kg, iv administered every 1 hr for 6 hrs. Type of data set: functional, organism-based. Also on record: dose 10 mg/kg.
Data set [7] relates to Hepatocyte. Description: Inhibition of glucose production in rat primary hepatocytes at 100 uM. It is filed as functional, cell-based.
Data set [8] is described as follows: Inhibition of adenylate kinase AMP binding site.

Activity calls are given as the source filed them. No cut-off for these calls is given here.

The term bioavailability denotes the share of a dose that reaches the circulation, judged against a reference dose that is usually intravenous. What is called EC50 is the concentration giving half of the maximal effect. Usually IC50 stands for the midpoint of a concentration-inhibition curve.

Chain of Adenosine kinase (P55263 whole entry): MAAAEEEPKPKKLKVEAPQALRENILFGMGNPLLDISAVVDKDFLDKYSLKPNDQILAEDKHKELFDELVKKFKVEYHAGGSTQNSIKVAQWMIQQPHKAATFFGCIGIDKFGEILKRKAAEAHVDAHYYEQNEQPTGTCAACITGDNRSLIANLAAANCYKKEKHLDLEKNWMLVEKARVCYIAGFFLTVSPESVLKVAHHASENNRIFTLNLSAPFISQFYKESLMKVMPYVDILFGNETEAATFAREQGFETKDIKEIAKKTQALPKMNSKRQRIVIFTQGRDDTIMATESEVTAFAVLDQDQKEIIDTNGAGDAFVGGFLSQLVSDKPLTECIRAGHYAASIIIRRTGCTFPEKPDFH

In the case of `CCc1cc(F)c(N)c2nc(-c3ccc(P(=O)(O)O)o3)n(CC(C)C)c12`, the bioavailability in [1] was determined as 1%. Also, the Activity in the data set with Rattus norvegicus [2] was 64%. Besides, the result with Hepatocyte [3], with Rattus norvegicus [6] and in the data set on Hepatocyte [7] was Active. In addition, the 50% effective concentration (EC50) in data set [4] and in data set [5] was over 100 µM throughout. Moreover, the IC50 (at Adenosine kinase; in data set [8]) was over 100 µM each time.

Regarding `CCc1cc(F)c(N)c2nc(-c3ccc(P(=O)(OCC(=O)OC(C)(C)C)OCC(=O)OC(C)(C)C)o3)n(CC(C)C)c12.Cl`, the bioavailability in data set [1] was determined as 2%.

In turn, `CCOC(=O)OCOP(=O)(OCOC(=O)OCC)c1ccc(-c2nc3c(N)c(F)cc(CC)c3n2CC(C)C)o1` came in with a bioavailability in data set [1] of 2%.

Take `CCc1cc(F)c(N)c2nc(-c3ccc(P(=O)(OCC(=O)OC(C)(C)C)OCC(=O)OC(C)(C)C)o3)n(CC(C)C)c12`: the bioavailability in data set [1] came to 2%.

`CCc1cc(F)c(N)c2nc(-c3ccc(P(=O)(Oc4ccc(C(=O)OC(C)(C)C)cc4)Oc4ccc(C(=O)OC(C)(C)C)cc4)o3)n(CC(C)C)c12` gave a bioavailability in [1] of 2%.

(Values after ChEMBL document CHEMBL1156817, “Fructose-1,6-bisphosphatase Inhibitors. 2. Design, synthesis, and structure-activity relationship of a series of phosphonic acid containing benzimidazoles that function as 5'-adenosinemonophosphate (AMP) mimics” (J Med Chem, 2010).)
